From PubChem BioAssay (NCI)
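Compound exposure: 48 hours, 5 concentrations, 96-well plates. GI50 is the concentration that inhibits growth by half. TGI: total growth inhibition.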

Legend:
Assay in all cases: NCI tumour cell line growth inhibition, 48 h
MDA-MB-231 breast = tested on: MDA-MB-231 breast
OVCAR-4 ovarian = tested on: OVCAR-4 ovarian
HS 578T breast = tested on: HS 578T breast
HCC-2998 colon = tested on: HCC-2998 colon
SK-MEL-2 melanoma = tested on: SK-MEL-2 melanoma
SN12C renal = tested on: SN12C renal
K-562 leukemia = tested on: K-562 leukemia
PC-3 prostate = tested on: PC-3 prostate
A549 NSCLC = tested on: A549 NSCLC
NCI-H460 lung = tested on: NCI-H460 lung
COLO 205 colon = tested on: COLO 205 colon
M14 melanoma = tested on: M14 melanoma
SF-295 CNS = tested on: SF-295 CNS
HCT-15 colon = tested on: HCT-15 colon
NCI/ADR-RES ovarian = tested on: NCI/ADR-RES ovarian
OVCAR-5 ovarian = tested on: OVCAR-5 ovarian
SF-539 CNS = tested on: SF-539 CNS
DU-145 prostate = tested on: DU-145 prostate
SK-MEL-28 melanoma = tested on: SK-MEL-28 melanoma
SNB-19 CNS = tested on: SNB-19 CNS
MOLT-4 leukemia = tested on: MOLT-4 leukemia
KM12 colon = tested on: KM12 colon
IGROV1 ovarian = tested on: IGROV1 ovarian
U251 CNS = tested on: U251 CNS
NCI-H23 lung = tested on: NCI-H23 lung
HL-60(TB) leukemia = tested on: HL-60(TB) leukemia
ACHN renal = tested on: ACHN renal
SW-620 colon = tested on: SW-620 colon
A498 renal = tested on: A498 renal

SMILES: C=C(C)[C@@H]1CC[C@]2(COS(C)(=O)=O)CC[C@]3(C)[C@H](CC[C@@H]4[C@@]5(C)CCCNC(C)(C)[C@@H]5CC[C@]43C)[C@@H]12
- GI50 (MDA-MB-231 breast): 1800 nM
- TGI (MDA-MB-231 breast): 3310 nM
- GI50 (OVCAR-4 ovarian): 1820 nM
- TGI (OVCAR-4 ovarian): 3650 nM
- GI50 (HS 578T breast): 1850 nM
- TGI (HS 578T breast): 3920 nM
- GI50 (HCC-2998 colon): 1740 nM
- TGI (HCC-2998 colon): 3160 nM
- GI50 (SK-MEL-2 melanoma): 1690 nM
- TGI (SK-MEL-2 melanoma): 3540 nM
- GI50 (SN12C renal): 2280 nM
- TGI (SN12C renal): 5480 nM
- GI50 (K-562 leukemia): 1160 nM
- TGI (K-562 leukemia): 3060 nM
- GI50 (PC-3 prostate): 1590 nM
- TGI (PC-3 prostate): 3430 nM
- GI50 (A549 NSCLC): 1820 nM
- TGI (A549 NSCLC): 3630 nM
- GI50 (NCI-H460 lung): 1800 nM
- TGI (NCI-H460 lung): 3490 nM
- GI50 (COLO 205 colon): 1730 nM
- TGI (COLO 205 colon): 3270 nM
- GI50 (M14 melanoma): 1780 nM
- TGI (M14 melanoma): 3470 nM
- GI50 (SF-295 CNS): 1820 nM
- TGI (SF-295 CNS): 3330 nM
- GI50 (HCT-15 colon): 1570 nM
- TGI (HCT-15 colon): 3060 nM
- GI50 (NCI/ADR-RES ovarian): 1720 nM
- TGI (NCI/ADR-RES ovarian): 3270 nM
- GI50 (OVCAR-5 ovarian): 1680 nM
- TGI (OVCAR-5 ovarian): 3100 nM
- GI50 (SF-539 CNS): 1660 nM
- TGI (SF-539 CNS): 3080 nM
- GI50 (DU-145 prostate): 1810 nM
- TGI (DU-145 prostate): 3290 nM
- GI50 (SK-MEL-28 melanoma): 1700 nM
- TGI (SK-MEL-28 melanoma): 3220 nM
- GI50 (SNB-19 CNS): 1750 nM
- TGI (SNB-19 CNS): 3280 nM
- GI50 (MOLT-4 leukemia): 1650 nM
- TGI (MOLT-4 leukemia): 3620 nM
- GI50 (KM12 colon): 1830 nM
- TGI (KM12 colon): 3390 nM
- GI50 (IGROV1 ovarian): 1770 nM
- TGI (IGROV1 ovarian): 3570 nM
- GI50 (U251 CNS): 1750 nM
- TGI (U251 CNS): 3290 nM
- GI50 (NCI-H23 lung): 1680 nM
- TGI (NCI-H23 lung): 3340 nM
- GI50 (HL-60(TB) leukemia): 1620 nM
- TGI (HL-60(TB) leukemia): 3390 nM
- GI50 (ACHN renal): 1810 nM
- TGI (ACHN renal): 3200 nM
- GI50 (SW-620 colon): 1680 nM
- TGI (SW-620 colon): 3340 nM
- GI50 (A498 renal): 1820 nM
